This is an account of results in US11254944B2, “Agrobacterium derived cell penetrating peptides as nanocarriers” (priority 2017, dated 2022).

Data set [1] concerns mesophyll protoplasts of T. aestivum. In words: Cellular uptake of FITC-Vir in mesophyll protoplasts (confocal microscopy, fluorimetry). Type of data set: cell-based. The conditions noted are these: for CPP activity compared with the parent peptide: 15 μM. As to the method: FIG. 2: illustrates the cellular internalization of FITC-Vir in mesophyll protoplasts of T. aestivum (A) Confocal microscopic images of cellular uptake (a) untreated (No peptide) (b) Vir (15 μM) (c) Tat (5 μM) (d) M-Tat (5 μM) (e) Dextran Sulphate (5 μM). (B) Quantitative estimation of uptake in protoplasts as assessed by fluorimetry.
In the said embodiment, a process for identification of optimum concentration and mechanism of cellular uptake of Vir of the peptide nano-carrier in the mesophyll protoplasts of T. aestivum is described below and illustrated in FIG. 2 by employing several endocytic inhibitors such as sodium azide, nocodazole, cytochalasin-D cytochalasin D, and chlorpromazine for blocking different energy-dependent pathways.
It is observed that with increasing concentration, the number of cells internalizing the peptide also increases proportionally.
(§1) FIG. 2 illustrates that in case of protoplasts, the uptake of Vir is affected in the presence of either endocytic inhibitors.
The viability of the protoplasts is affected at higher concentrations of the peptide, as a drop of 20-30% at 15 μM and 60-70% at 30 μM in the percentage of viable cells is observed with respect to untreated cells (viability 90%).

Data set [2] deals with HeLa cells. Briefly: Cellular uptake of FITC-Vir in HeLa cells (confocal microscopy, flow cytometry). Type of data set: cell-based. As to the method: FIG. 4: illustrates the cellular translocation of FITC-Vir in HeLa cells (A) confocal microscopy (a) Untreated (b) Vir (15 μM) (c) Tat (5 μM) (d) M-Tat (5 μM) (e) Dextran Sulphate (5 μM). (B) Quantitative estimation of uptake in HeLa cells as assessed by flow cytometry.
as §1
In one such embodiment, a method of targeting and delivering macromolecules to HeLa cells, as representative of mammalian system, using the peptide nanocarrier includes incubating the HeLa cells with the agrobacterium derived cell penetrating peptide nanocarrier Vir.
(§2) In the said embodiment, a process for identification of optimum concentration of the nano-carrier Vir in the HeLa cells is substantially the same as identification of optimum concentration of the nano-carrier Vir in the mesophyll protoplasts of T. aestivum as discussed above and is illustrated in FIG. 4. It is observed that the internalization in HeLa cells starts from 5 μM but a distinct nuclear localization is observed from 15 μM onwards as shown in FIG. 4. As observed with protoplasts, the peptide uptake in HeLa cells also increases with increasing concentration of peptide with 60-70% cells showing uptake at 15 μM and more than 90% cells showing uptake at 30 μM. However, unlike protoplasts, the viability of HeLa cells is not compromised greatly as 94% cells remained viable at 15 μM and 84% cells at 30 μM.

Data set [3] is described as follows: Viability of HeLa cells after peptide incubation. Type of data set: cell-based. As to conditions: human, read-out: cells remained viable. As to the method: as §2
The subject of data set [4] is root tips and leaf bases of T. aestivum. In words: Translocation of Vir in meristematic tissues (root tips, leaf bases). Type of data set: cell-based. As to conditions: 5-40 μM. As to the method: FIG. 3: illustrates the translocation of Vir in various tissues of T. aestivum (A) leaf bases (B) root tips. Different panels represent (a) Untreated (b) Dextran sulphate (5 μM) (c) M-Tat (5 μM) (d) Tat (5 μM) (e) Vir: 5 μM (f) 10 μM (g) 15 μM (h) 20 μM (i) 30 μM (j) 40 μM.
In another embodiment, a method of targeting and delivering macromolecules to a meristematic tissue that is, root tips and leaf bases, of T. aestivum(wheat plant) using the agrobacterium derived cell penetrating peptide nanocarrier Vir includes incubating the meristematic tissues that is, root tips and leaf bases, of T. aestivum with the peptide nanocarrier.
In the said embodiment, a process for identification of optimum concentration of the peptide nanocarrier in the meristematic tissues of T. aestivum is substantially the same as identification of optimum concentration of the nano-carrier Vir in the mesophyll protoplasts of T. aestivum as discussed above and is illustrated in FIG. 3.

Data set [5] has as its system Protoplast of wheat. In words: Reporter protein (β-glucuronidase) delivery by Vir in wheat protoplasts. Type of data set: cell-based, T. aestivum. As to conditions: β-glucuronidase 1 μg, Vir 15 μM. The source says:
(§3) FIG. 6: illustrates an analysis of cargo delivery ability of Vir peptide in plant and mammalian systems. Macromolecule delivery by Vir in (A) Protoplast of wheat (B) leaf bases (C) root tips with (a) no peptide (b) GUS buffer only (c) β-glucuronidase only (d) Vir only (e) Vir-β-galactosidase; (D) HeLa cells with (a) non peptide (b) X-gal staining solution only (c) β-galactosidase only (d) Vir only (e) Vir-β-galactosidase.
(§4) In one embodiment, the ability of the peptide nanocarrier to deliver macromolecular cargoes in cells is evaluated by using β-glucuronidase enzyme as the reporter protein whereas β-galactosidase is employed for delivery in mammalian cells. The reporter proteins are non-covalently complexed with peptide nanocarrier, SEQ ID NO: 3 with the sequence KRPRRKRARGNRR at room temperature for 1 hr. The reporter proteins are used at a concentration of 1 μg while the peptide nanocarrier is used at the optimized concentration that is, 15 μM for complex formation. The peptide-protein complexes thus formed, were incubated with mammalian cells, plant protoplasts and tissues (root tips and leaf bases) further for 1 hour at 18-37 deg C. and room temperature, at pH range from 5.5 to 7.5 respectively. The enzyme delivery by peptide nanocarrier is examined by staining the cells with respective staining solutions. […]

The test system of data set [6] is root tips and leaf bases. Briefly: Reporter protein (β-glucuronidase) delivery by Vir in root tips and leaf bases. Type of data set: cell-based, T. aestivum. As to conditions: β-glucuronidase 1 μg, Vir 15 μM.
Description: as §3, §4

Data set [7] deals with HeLa cells. Briefly: Reporter protein (β-galactosidase) delivery by Vir in HeLa cells. Type of data set: cell-based. As to conditions: β-galactosidase 1 μg, Vir 15 μM.
Description: as §3, §4

Where a SMILES comes first, the peptide text is derived from it. The star is where a group is joined. FITC = O=C1OC2(c3ccc(O)cc3Oc3cc(O)ccc32)c2ccc(NC(=S)*)cc21 Where only a bound is given, the exact number is not on record here.

In the case of `C[C@H](NC(=O)[C@H](CCCNC(=N)N)NC(=O)[C@H](CCCCN)NC(=O)[C@H](CCCNC(=N)N)NC(=O)[C@H](CCCNC(=N)N)NC(=O)[C@@H]1CCCN1C(=O)[C@H](CCCNC(=N)N)NC(=O)[C@H](CCCCN)NC(=S)Nc1ccc2c(c1)C(=O)OC21c2ccc(O)cc2Oc2cc(O)ccc21)C(=O)N[C@@H](CCCNC(=N)N)C(=O)NCC(=O)N[C@@H](CC(N)=O)C(=O)N[C@@H](CCCNC(=N)N)C(=O)N[C@@H](CCCNC(=N)N)C(=O)O` [Vir, KRPRRKRARGNRR] ({FITC}-KRPRRKRARGNRR-OH; N-terminus and C-terminus assumed), in data set [1], the cells show uptake was 10-15%. The “concentration from which prominent nuclear localization is observed” value in data set [1] was not below 15 µM. The “number of cells exhibiting cellular uptake” value in data set [1] (distinct nuclear localization) is recorded as 50-60%. Also, the “uptake in the presence of endocytic inhibitors” value in data set [1] (sodium azide, nocodazole, cytochalasin D, chlorpromazine) is reported as “affected”. The “concentration from which distinct nuclear localization is observed” value in data set [2] was not below 15 µM. In addition, the “concentration from which internalization starts” value in data set [2] was not below 5 µM. Moreover, the cells showing uptake is recorded as 60-70% in data set [2] (15 μM) and “more than 90%” in data set [2] (30 μM). Besides, the cellular uptake reduced in data set [2] (at 4° C.) and in data set [2] (in presence of chlorpromazine) was 20% each time. Also, the “cellular uptake in presence of other inhibitors” value in data set [2] (other endocytic inhibitors) is listed as “remained unaffected”. Also, in data set [3] (15 μM), the viability at 15 µM was determined as 94%. In data set [3] (30 μM), the viability at 30 µM is 84%. Further, the “uptake in the tissues” value in data set [4] was “increases with increasing concentration of the peptide”. Besides, the delivery efficiency in data set [5] is reported as 50%; in data set [6] (leaf bases), 90%; in data set [6] (root tips) it was 90%. Also, the “efficiency of β-galactosidase delivery” value in data set [7] is given as “more than 90%”.
As for “KAPARKRARGNRR [M-Vir1, mutated VirD2 peptide, mutation in KRPR to KAPA]”, the “CPP activity compared with the parent peptide” value in data set [1] and in data set [2] (15 μM) was “increased” throughout.
As for “KRPRRKAAAGNRR [M-Vir2, mutated VirD2 peptide, mutation in RKRAR to RKAAA]”, the “CPP activity compared with the parent peptide” value in data set [1] and in data set [2] (15 μM) was “remains similar to the parent peptide” in each case.
